Values of other authors as cited in article PMC6722509, “Design and In Vivo Pharmacokinetic Evaluation of Triamcinolone Acetonide Microcrystals-Loaded PLGA Microsphere for Increased Drug Retention in Knees after Intra-Articular Injection” (Pharmaceutics, 2019).

How the values were obtained:
[1] = 0.25 mg per knee, rats

For CC1(C)O[C@@H]2C[C@H]3[C@@H]4CCC5=CC(=O)C=C[C@]5(C)[C@@]4(F)[C@@H](O)C[C@]3(C)[C@]2(C(=O)CO)O1 [TA, triamcinolone acetonide], the “Solubility in ACN” value is listed as < 1000 µg/mL and the “Tolerability of IA dose” value [1] is listed as “well tolerated”.
